From US12029730B2, “Pharmaceutical composition for preventing or treating cancer, containing N-1H-benzimidazol-2-yl-3-(1H-pyrrole-1-yl)benzamide as active ingredient” (KOREA INSTITUTE OF RADIOLOGICAL & MEDICAL SCIENCES, priority 2018, dated 2024)

How the values were obtained:
Assay type in all cases: cell-based, human
[1] = test system: MCF7 cells; test: WST-8 cell viability assay, breast cancer cell line MCF7; settings: for cell viability, MCF7: 3.70, 11.11, 33.33 and 100 μM
Description: (§1) In addition, the cell line in this experiment was distributed from ATCC (American Type Culture Collection; Manassas, VA). Human-derived tumor cell lines, breast cancer cell lines MCF7 and T47D was cultured in DMEM medium containing 10% fetal bovine serum (FBS; HyClone, South Logan, UT) and 1% penicillin/streptomycin (Corning, NY, USA) at 37° C. and 5% CO2, and the BT549 breast cancer cell line was cultured in RPMI 1640 (Welgene, Daegu, Korea) as a medium used under the same conditions. Human-derived normal cell line MCF10A was cultured in DMEM/F12 (Invitrogen) medium containing 5% horse serum (Invitrogen), 1% penicillin/streptomycin, 20 ng/ml EGF (Peprotech, London, UK), […] (Sigma-Aldrich, MO, USA), 100 ng/ml cholera toxin (Cholera Toxin, Sigma-Aldrich) and 10 μg Insulin (Sigma-Aldrich) at 37° C. and 5% CO2.
(§2) Briefly, MCF7 and MCF10A cells were seeded into 96-well plates, incubated for 24 hours, and then was treated with 42 inhibitor candidates. Among the compounds, the multi-AGC kinase inhibitor AT13148 was used as a positive control. Thereafter, the absorbance was measured at 450 nm using a Versamax microplate reader (Molecular Devices, CA, USA), and the results of the experiment were shown in FIG. 1A.
(§3) In order to confirm whether the selected MKI-1 can kill only cancer cells, an experiment was performed by treating with MKI-1 and measuring whether the cell viability of breast cancer cell lines and normal cell lines was changed. WST-8 analysis (Cyto X™ cell viability assay kit, LPS solution, Daejeon, Korea) was performed according to the manufacturer's protocol. Cancer cells MCF7 and BT549 and normal cell line MCF10A cells were inoculated into a 96-well plate, cultured for 24 hours, and then treated with MASTL kinase inhibitors at various concentrations (3.70, 11.11, 33.33 and 100 μM). Thereafter, the absorbance was measured at 450 nm using a Versamax micro plate reader (Molecular Devices, CA, USA), and the results were shown in FIG. 6.

[2] = test system: MCF10A cells; test: WST-8 cell viability assay, normal cell line MCF10A; settings: for cell viability, normal cell line MCF10A: 3.70, 11.11, 33.33 and 100 μM, FIG. 6
Description: as §1, §2, §3

[3] = test system: MCF7 cells; test: Colony formation analysis; settings: MCF7, cultured 15 days, compared to DMSO, FIG. 7
Description: Colony formation analysis was performed to confirm whether the selected MKI-1 can effectively kill cancer cells. First, breast cancer cells MCF7 (500-1000 cells) were cultured in a 60 mm culture plate, and after 24 hours, it was treated with MASTL kinase inhibitors (AT13148, MKI-1 and GKI-1), respectively and cultured for 15 days. Cells were fixed and stained with […] to which methanol was added to quantify the number of colonies, which was shown in FIG. 7.

[4] = test system: MCF7 cells; test: Colonogenic assay and western blotting with 2.5 Gy radiation, MCF7; settings: for sensitivity to radiation therapy (colony number): MCF7, 2.5 Gy, compared to DMSO, FIG. 10A/10B
Description: A colonogenic assay was performed in order to confirm whether the sensitivity to the radiation treatment effect can be increased when MCF7 cancer cell line was treated with MKI-1. First, breast cancer cells MCF7 (500-1000 cells) were placed in a 60-mm tissue culture medium on a 60 mm culture plate, and treated with MASTL kinase inhibitors (AT13148, MKI-1 and GKI-1), respectively, and then was treated with 2.5 Gy radiation by Biobeam GM8000 (Gamma-Gamma-Service Medical GmbH, Leipzig, Germany) and the control group was not treated with radiation. After 10 to 14 days, the cell colonies were fixed with methanol and stained with 0.5% crystal violet, and the results were shown in FIG. 10A, and the number of colonies shown in the above results was quantified using Image J software to show in 10B, and then western blotting was performed and the results thereof were shown in FIG. 10C.

[5] = test system: CD44^high/CD24^low MCF7 cells; test: Colonogenic assay and western blotting with 2.5 Gy radiation, radioresistant CD44high/CD24low MCF7; settings: for sensitivity to radiation therapy (colony number): CD44high/CD24low MCF7, 2.5 Gy, compared to DMSO, FIG. 11A/11B
Description: A colonogenic assay was performed in order to confirm whether the sensitivity to the radiation treatment effect was increased even in the CD44^high/CD24^low MCF7 cancer cell line having a radioresistant phenotype, when it was treated with MKI-1. First, breast cancer cells CD44^high/CD24^low MCF7 (500-1000 cells) were placed in a 60-mm tissue culture medium on a 60 mm culture plate, and treated with MASTL kinase inhibitors (AT13148, MKI-1 and GKI-1), respectively, and then was treated with 2.5 Gy radiation by Biobeam GM8000 (Gamma-Gamma-Service Medical GmbH, Leipzig, Germany) and the control group was not treated with radiation. After 10 to 14 days, the cell colonies were fixed with methanol and stained with 0.5% crystal violet, and the results were shown in FIG. 11A, and the number of colonies shown in the above results was quantified using Image J software to show in 11B, and then western blotting was performed and the results thereof were shown in FIG. 11C.

[6] = screen of 42 single compounds, FIG. 1A
[7] = MCF7, after radiation treatment, FIG. 10C
[8] = CD44high/CD24low MCF7, after radiation treatment, FIG. 11C

| SMILES | cell viability, MCF7 ([1]; FIG. 6) | cell viability, normal cell line MCF10A [2] | number of cancer cell colonies [3] | sensitivity to radiation therapy (colony number) [4] | sensitivity to radiation therapy (colony number) [5] | survival rate of cancer cells, MCF7 ([1]; 33.33 μM or more, FIG. 6) | growth of the treated cancer cell line (MCF7) [1, 6] | cell viability of normal cell line (MCF10A) [2, 6] | expression levels of cleaved-PARP and phosphorylated Chk2 [4, 7] | expression levels of procaspase-2 [4, 7] | expression levels of cleaved-PARP and phosphorylated Chk2 [5, 8] | expression levels of procaspase-2 [5, 8] |
| --- | --- | --- | --- | --- | --- | --- | --- | --- | --- | --- | --- | --- |
| Clc1ccc(Nc2cccc(-c3cn[nH]c3)c2)cc1 [GKI-1, N-(4-chlorophenyl)-3-(1H-pyrazol-4-yl)aniline, reference compound] | decreases cell viability in a dose-dependent manner | hardly decrease cell viability | hardly decreased | no synergistic effect | no synergistic effect |  |  |  |  |  |  |  |
| O=C(Nc1nc2ccccc2[nH]1)c1cccc(-n2cccc2)c1 [MKI-1, N-1H-benzimidazol-2-yl-3-(1H-pyrrol-1-yl) benzamide] | decreases cell viability in a dose-dependent manner | hardly decrease cell viability | significantly reduced | significantly higher | significant increase in sensitivity to radiation treatment | significantly reduced | significantly inhibited | maintained as high as that of the control group DMSO | increased | decreased | increased | decreased |
